Measured values: article PMC10187093, “Synthesis, in silico modelling, and in vitro biological evaluation of substituted pyrazole derivatives as potential anti-skin cancer, anti-tyrosinase, and antioxidant agents” (Journal of Enzyme Inhibition and Medicinal Chemistry, 2023)

What was measured:
Assay type in all cases: cell-based, human
[1] = test system: A431; assay: Colony formation assay, A431; settings: 0, ½IC50, IC50, 1½IC50; 14 days; vs untreated control
Experimental: (§1) Cells were then trypsinised, and 1000 viable cells from each treated group were seeded on […] in 10 mL of the medium, and incubated for an additional 14 days before fixation and crystal violet staining, imaging, and colonies assessment as previously described[109]^,[116]. The plates were scanned, and the area of clones was quantified with the free software Image J (Bethesda, MD) (https://imagej.nih.gov/ij/).

[2] = test system: HaCaT; assay: MTT cytotoxicity assay, noncancerous HaCaT keratinocytes; settings: Homo sapiens, HaCaT; control noncancerous keratinocytes, MTT, 48 h; read-out: IC50 HaCaT
Experimental: (§2) Human-derived GFP-expressing melanoma A375 and epidermoid carcinoma A431 cell lines were purchased from Angio-Proteomie (Boston, MA). Human melanoma carcinoma SK-MEL-28 and human immortalised keratinocytes (HaCaT) cell lines were acquired from American Type Culture Collection (ATCC; Manassas, VA). Human cutaneous SCC cell line SCC-12[192] was generously provided by Dr. James G. Rheinwald to Dr. Tatiana Efimova. Except SK-MEL-28, which was cultured in an RPMI-1640 medium supplemented with 5% FBS, all other human immortalised cell lines were grown and maintained in DMEM containing varying percentages of FBS; 5% FBS for A431, SCC-12, and HaCaT lines, and 10% FBS for A375. All culture media were routinely supplemented with 1% PEST 100X (100 U/mL penicillin, 100 μg/mL streptomycin), and cells were cultured in incubators maintained at 37 °C under an atmosphere of 95% humidity, 20% O2, and 5% CO2. The growth media of incubated cells were changed every 2–3 days until they attained 70–80% confluence, after which they were sub-cultured for experiments and re-passaging. DMSO was used as the vehicle to prepare a 10 mM stock solution of the test compounds.
(§3) Stock solutions (10 mM) were prepared by dissolving each compound to be screened in DMSO. From these stock solutions, escalating concentrations were prepared using the corresponding cell growth media as a diluent, and the cells (65–75% confluent) were treated with (0–40 µM) or without the drug in sext- to octuplicate and incubated for 48 h. All treatment protocols and controls were prepared as previously described.
(§4) The potency and cytotoxicity of the test compounds against two cutaneous melanoma (A375 and SK-MEL-28) and two non-melanoma (A431 and SCC-12) SC cell lines in addition to a control immortalised normal human epidermal keratinocytes (HaCaT) cell line were assessed by MTT assay as previously described.

[3] = test system: A431; assay: Scratch wound healing assay, A431; settings: 0, ½IC50, IC50, 1½IC50; 48 h; vs untreated control
Experimental: (§5) The scratch wound healing assay was performed to evaluate compound P25’s ability to limit cell migration and scratch wound closure following our previously described protocol. Briefly, cells were seeded in wells of a 24-well plate and incubated to 100% confluent monolayer, following which a sterile 200 µL Gilson pipette tip was used to scratch a straight line across the centre. […] The wounded and re-epithelialisation areas were imaged at 0 h, 24 h, and 48 h using an inverted phase-contrast Olympus IX51 microscope (Olympus America Inc., Center Valley, PA) attached to an Infinity 2 digital camera. Images were processed with an Infinity analysis software version 6.5.6 (Teledyne Lumenera, Ottawa, Canada) and analysed with Adobe Photoshop. The ImageJ software (NIH, Bethesda, MD) was used to measure the migratory area of each treatment group, with results expressed as remaining percentage of unfilled wound surface at 0 h[108].

[4] = test system: GFP-A431; assay: MTT antiproliferative/cytotoxicity assay, A431; settings: Homo sapiens, A-431, 48 h, non-melanoma, MTT, 48 h; read-out: IC50 GFP-A431
Experimental: (§6) Human-derived GFP-expressing melanoma A375 and epidermoid carcinoma A431 cell lines were purchased from Angio-Proteomie (Boston, MA). Human melanoma carcinoma SK-MEL-28 and human immortalised keratinocytes (HaCaT) cell lines were acquired from American Type Culture Collection (ATCC; Manassas, VA). […] The growth media of incubated cells were changed every 2–3 days until they attained 70–80% confluence, after which they were sub-cultured for experiments and re-passaging. DMSO was used as the vehicle to prepare a 10 mM stock solution of the test compounds.
(§7) Stock solutions (10 mM) were prepared by dissolving each compound to be screened in DMSO.

[5] = test system: SK-MEL-28; assay: Scratch wound healing assay, SK-MEL-28; settings: 0, ½IC50, IC50, 1½IC50; 48 h; vs untreated control
Experimental: as §5

[6] = test system: SCC-12; assay: MTT antiproliferative/cytotoxicity assay, SCC-12
Experimental: as §6, §7

[7] = test system: A375; assay: MTT antiproliferative/cytotoxicity assay, A375; settings: Homo sapiens, A-375, 48 h, melanoma, MTT, 48 h; read-out: IC50 A375
Experimental: as §2, §3, §4

[8] = test system: SK-MEL-28; assay: Colony formation assay, SK-MEL-28; settings: 0, ½IC50, IC50, 1½IC50; 14 days; vs untreated control
Experimental: as §1

[9] = test system: SK-MEL-28; assay: MTT antiproliferative/cytotoxicity assay, SK-MEL-28; settings: Homo sapiens, SK-MEL-28, 48 h, melanoma, MTT, 48 h; read-out: IC50 SKMEL-28
Experimental: as §2, §3, §4

[10] = test system: SK-MEL-28; assay: Immunoblotting of apoptosis markers, SK-MEL-28; settings: western blot, 48 h, vs untreated
Experimental: Immunoblotting was performed according to standard procedures of the Bio-Rad electrophoresis system (Bio-Rad, Hercules, CA) as described earlier. Briefly, protein extracts were obtained by lysing cells in RIPA buffer containing protease inhibitors, and were resolved by 4–12% polyacrylamide ready mini-PROTEAN TGX gel electrophoresis with sodium dodecyl sulphate (SDS) running buffer. Gels were electrotransferred to 0.45 μm nitrocellulose membranes (Bio-Rad, Hercules, CA) in Tris-glycine (TG) buffer using a Trans-Blot Turbo Transfer Pack according to manufacturer’s instructions. Membranes were incubated for 1 h in 5–7% non-fat powdered milk dissolved in TBST (Tris-buffered saline containing 0.05% Tween 20) or 5% BSA for phosphorylated proteins, to saturate nonspecific binding sites, followed by an overnight incubation (4 °C) with primary antibodies. Membranes were washed 5× with TBST and treated with suitable HRP-conjugated secondary antibodies (Amersham Life Science Inc., Arlington Height, IL) for another 2 h at room temperature, followed by additional wash steps and chemiluminescence-based detection with the Amersham ECL Prime detection reagent kit and the Bio-Rad Quantity One ChemiDoc™ detection and imaging analysis software systems as described earlier[108]^,[109].

SMILES: O=C1CC(c2ccccc2)=NN1c1ccc(Br)cc1 [P25]
- colony formation, A431 [1]: significant concentration-dependent reductions in the relative percentage of colonies formed
- IC50 [2]: 30.5 ± 2 µM
- scratch wound closure / migration, A431 [3]: significantly and dose-dependently decreased the scratch wound areas
- IC50 [4]: 3.7 ± 0.5 µM
- scratch wound closure / migration, SK-MEL-28 [5]: significantly and dose-dependently decreased the scratch wound areas
- IC50 ([6]; Homo sapiens, SCC12, 48 h, non-melanoma, MTT, 48 h, read-out: IC50 SCC-12): 12.2 ± 0.6 µM
- selectivity index (SI) SCC-12 ([6]; IC50 HaCaT divided by IC50 SCC-12): ~2.5
- IC50 [7]: 14.3 ± 0.9 µM
- colony formation, SK-MEL-28 [8]: significant concentration-dependent reductions in the relative percentage of colonies formed
- IC50 [9]: 7.6 ± 0.6 µM
- activated caspase-3, caspase-9 and cleaved PARP levels, SK-MEL-28 ([10]; concentration-dependent): substantially increased levels
- anti-apoptotic Bcl-2 protein levels, SK-MEL-28 [10]: corresponding decreases
- pro-apoptotic Bax expression, SK-MEL-28 [10]: dose-dependent amplified expression
